Measured values published in patent US20130165635A1 (priority 2010, published 2013).
Numbered stars: 1 amine (or outer) side, 2 acyl side, 3 side chain; on linkers, the order of the positions; unused ones are H or OH. Bridge positions count the residues as written; N and C are the ends. Square brackets hold non-standard residues; d marks the D form. Peptide text beside a SMILES is read from it. X1 = CC(C)CCCCCCCCC[C@H](CC(=O)[*:1])O[*:2]

What was measured:
Format in all cases: cell-based
[1] = system: Magnaporthe grisea; settings: 1.56 to 12.56 μg/mL, 100 μL in cup, 25° C. for 1 to 3 days
[2] = system: Fusarium oxysporum
[3] = system: Trichophyton mentagrophytes

Compound: CC(C)CCCCCCCCC[C@@H]1CC(=O)N[C@@H](CCC(=O)O)C(=O)N[C@@H](CC(C)C)C(=O)N[C@H](CC(C)C)C(=O)N[C@@H](C(C)C)C(=O)N[C@@H](CC(=O)O)C(=O)N[C@H](CC(C)C)C(=O)N[C@@H](CC(C)C)C(=O)O1 [surfactin] (EL[dL]VD[dL]L; linker N-C via X1)
- antifungal activity (growth inhibition of test microorganism) [1]: weaker than iturin A, but slight inhibitory activities
- antifungal activity (growth inhibition of test microorganism) [2]: did not show antifungal activity

Compound: iturin A
- antifungal activity (growth inhibition of test microorganism) [1]: strong antifungal activities
- antifungal activity (growth inhibition of test microorganism) [3]: strong antifungal activities
- antifungal activity (growth inhibition of test microorganism) [2]: strong antifungal activity
